Test results as given in PubChem BioAssay (NCI).
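Cells were grown in 96-well plates and exposed to each compound for 48 hours at five concentrations; endpoints were interpolated linearly between bracketing concentrations, or set to the highest concentration if not reached. Here, GI50 denotes the concentration required for 50% inhibition of growth. TGI: concentration producing complete growth inhibition.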

What was measured:
Assay in all cases: NCI tumour cell line growth inhibition, 48 h
SNB-78 CNS = test system: SNB-78 CNS
DMS 273 small cell lung = test system: DMS 273 small cell lung
XF 498 CNS = test system: XF 498 CNS
KM20L2 colon = test system: KM20L2 colon
DLD-1 colon = test system: DLD-1 colon
RXF-631 renal = test system: RXF-631 renal
DMS 114 small cell lung = test system: DMS 114 small cell lung
LXFL 529 NSCLC = test system: LXFL 529 NSCLC
MDA-N = test system: MDA-N
P388/ADR leukemia = test system: P388/ADR leukemia
P388 leukemia = test system: P388 leukemia
SN12K1 renal = test system: SN12K1 renal

Row | SMILES | TGI (SNB-78 CNS) | TGI (DMS 273 small cell lung) | TGI (XF 498 CNS) | TGI (KM20L2 colon) | TGI (DLD-1 colon) | TGI (RXF-631 renal) | TGI (DMS 114 small cell lung) | TGI (LXFL 529 NSCLC) | TGI (MDA-N) | further results
1 | COc1ccc(/C=N\N2C(=O)Cc3ccccc32)cc1 | > 100 µM | > 100 µM | 83.9 µM | > 100 µM | > 100 µM | – | – | – | – | –
2 | CC(=O)OC1CC[C@@]2(C)C(CC(OC3OC(CO)C(O)C(O)C3O)[C@]3(C)C2CCC24CC23CC[C@H]4C(C)CC(O)[C@@H](O)C(C)(C)O)C1(C)C (stereo not given in full) | > 5 µM | > 50 µM | – | > 50 µM | > 50 µM | > 50 µM | 20.6 µM | 16.1 µM | – | –
3 | COc1cc(OC)c(Oc2cccc(OC)c2OC)c(OC)c1 | > 100 µM | > 100 µM | > 100 µM | > 100 µM | > 100 µM | – | > 100 µM | > 100 µM | – | –
4 | CC(=N\O)/C(C)=N/O.CC(=N\O)/C(C)=N/O.[Pd] | – | – | – | – | – | – | – | – | 4.87 µM | GI50 (MDA-N): 2.15 µM
5 | COC1=C(C(=O)OC(C)(C)C)C23CCCCC2(C(C(=O)OC(C)(C)C)=C(OC)C3C(=O)OC(C)(C)C)C1C(=O)OC(C)(C)C (stereo not given) | > 100 µM | > 100 µM | > 100 µM | > 100 µM | > 100 µM | 35.3 µM | > 100 µM | > 100 µM | – | –
6 | Nc1ccc(Cl)cc1.Nc1ccc(Cl)cc1.Nc1ccc(Cl)cc1.O=C([O-])C(=O)[O-].O=C([O-])C(=O)[O-].[H+].[Ru+5] | > 100 µM | > 100 µM | > 100 µM | > 100 µM | > 100 µM | > 100 µM | – | > 100 µM | – | GI50 (SNB-78 CNS): > 81.9 µM; GI50 (DMS 273 small cell lung): 0.087 µM; GI50 (XF 498 CNS): > 87.2 µM; GI50 (DMS 114 small cell lung): 0.23 µM; GI50 (LXFL 529 NSCLC): < 0.0272 µM; GI50 (KM20L2 colon): > 100 µM; GI50 (DLD-1 colon): > 43.5 µM
7 | COc1ncn(C2C=C(CO)C(O)C2O)c(=O)n1 (stereo not given) | > 100 µM | > 100 µM | – | > 100 µM | > 100 µM | – | > 100 µM | > 100 µM | – | –
8 | O=C1/C=C(/c2ccc(O)cc2)[C@H](O)Cc2ccc(OC3OC(CO)C(O)C(O)C3O)cc2O1 (stereo not given in full) (tested in a mixture with another compound) | > 100 µM | – | – | > 100 µM | > 100 µM | > 100 µM | > 100 µM | > 100 µM | – | –
9 | Cc1cc(C)c(-c2noc(-c3ccc(Cl)cc3)c2C2=NCCN2)c(C)c1 | 58.3 µM | – | 38.4 µM | 54 µM | 75.9 µM | > 100 µM | – | 44.5 µM | – | –
10 | Cn1c(=O)c(C2c3ccccc3Oc3c2c(=O)n(C)c2ccccc32)c(O)c2ccccc21 (stereo not given) | > 100 µM | > 100 µM | 75.9 µM | > 100 µM | > 100 µM | > 100 µM | > 100 µM | > 100 µM | – | –
11 | O=C(Nc1ccc(Cl)cc1Cl)c1c/c(=N\O)c2ccc(O)cc2o1 | > 100 µM | – | – | > 100 µM | > 100 µM | > 100 µM | > 100 µM | > 100 µM | – | –
12 | COc1ccccc1NC(=O)CC(=O)NNCC(=O)Nc1nc(-c2ccccc2)cs1 | > 100 µM | > 100 µM | – | > 100 µM | > 100 µM | – | > 100 µM | > 100 µM | – | –
13 | CCCCc1c2c(nc3c1CCc1cc(C=O)c(N)nc1-3)/C(=C/c1ccccc1)CCC2 | > 100 µM | > 100 µM | > 100 µM | > 100 µM | – | – | > 100 µM | > 100 µM | – | –
14 | COc1ccc2c(c1)Cc1cc(N=[N+]([O-])c3ccc4c(c3)Cc3cc(OC)ccc3-4)ccc1-2 | – | – | – | – | – | – | – | – | > 100 µM | –
15 | N#CC1(Cc2ccccc2Cl)c2ccccc2C=CN1C(=O)c1ccccc1 (stereo not given) | > 100 µM | > 100 µM | > 100 µM | > 100 µM | – | – | > 100 µM | > 100 µM | – | –
16 | CCCCCCCCOCC(O)COC (stereo not given) | – | > 100 µM | – | – | > 100 µM | – | > 100 µM | > 100 µM | – | –
17 | Cc1cc(CC(O)(C(F)(F)F)C(F)(F)F)cc(CC(O)(C(F)(F)F)C(F)(F)F)n1 | – | – | – | – | – | – | – | – | 13 µM | –
18 | CC(C)CCC[C@@H](C)C1CCC2[C@@H]3CC=C4C[C@@H](OC(=O)CCC(=O)NCC[N+](C)(C)CCCS(=O)(=O)[O-])CC[C@]4(C)C3CC[C@@]21C (stereo not given in full) | 70.1 µM | 28.5 µM | – | > 100 µM | 44.9 µM | – | 36.1 µM | 71.6 µM | – | –
19 | CCOC(=O)C(=C=Cc1cccs1)C(=O)c1ccccc1 | 47.5 µM | 31.3 µM | 32.6 µM | – | 27.8 µM | – | – | 28.4 µM | – | –
20 | CC(C)n1c2c(c3ccccc3c1=O)C(=O)c1ccccc1-2 | – | – | – | – | – | – | – | – | > 100 µM | –
21 | CC(=O)O/N=C1\C=Cc2c(no[n+]2[O-])C1=O | – | – | – | – | – | – | – | – | 33.1 µM | –
22 | Nc1ncnc2c1ncn2C1OC(CO)C(O)C1O (stereo not given) | > 450 µM | > 450 µM | > 450 µM | > 450 µM | > 450 µM | – | > 437 µM | – | > 100 µM | TGI (P388/ADR leukemia): 144 µM; TGI (P388 leukemia): 111 µM; TGI (SN12K1 renal): > 450 µM

Row | SMILES | TGI (SNB-78 CNS) | TGI (DMS 273 small cell lung) | TGI (XF 498 CNS) | TGI (KM20L2 colon) | TGI (DLD-1 colon) | TGI (RXF-631 renal) | TGI (DMS 114 small cell lung) | TGI (LXFL 529 NSCLC) | TGI (MDA-N) | further results
23 | c1cc(C2O[C@H]3CCCN3[C@@H]2c2ccncc2)ccn1 (stereo not given in full) | > 100 µM | > 100 µM | > 100 µM | > 100 µM | > 100 µM | – | > 100 µM | > 100 µM | – | –
24 | CC(C)(C)NC(=O)C12C3C4C1C1C2C3C41I (stereo not given) | > 100 µM | > 100 µM | > 100 µM | > 100 µM | – | > 100 µM | > 100 µM | > 100 µM | – | –
25 | COC(=O)CC[C@@H](NC(=O)C(C)NC(=O)COC1C(O)C(COC(=O)CCCCCCCCCCNC(=O)c2ccc([N+](=O)[O-])c3[nH]c4cc(Br)ccc4c(=O)c23)OC(OCc2ccccc2)C1NC(C)=O)C(N)=O (stereo not given in full) | > 100 µM | > 100 µM | > 100 µM | > 100 µM | > 100 µM | – | > 100 µM | 66.3 µM | – | –
26 | CC(=O)OCC1OC(n2c(-c3ccc(N)cc3)cc(-c3ccco3)c(C#N)c2=O)C(OC(C)=O)C(OC(C)=O)C1OC(C)=O (stereo not given) | > 50 µM | > 50 µM | – | > 50 µM | > 50 µM | > 50 µM | > 50 µM | > 50 µM | – | –
27 | CC(=O)NC1=NC(=O)/C(=C/c2ccc(Cl)cc2Cl)N1C | – | – | – | – | – | – | – | – | > 100 µM | –
28 | Cn1c(=O)c2[nH]c(Nc3ccccc3)nc2n(C)c1=O | – | – | – | – | – | – | – | – | > 10 µM | –
29 | OCCOCn1nc(-c2ccccc2)nc1-c1cnccn1 | – | – | – | – | – | – | – | – | > 100 µM | –
30 | Cc1ccc(NC(=O)C(=O)C2C(=O)C3=C(CC2(C)C)NC2C=CC=CC2S3)c(C)c1 (stereo not given) | – | – | – | – | – | – | – | – | > 100 µM | –
31 | CCOc1cccc2cccnc12 | – | – | > 100 µM | > 100 µM | > 100 µM | – | > 100 µM | > 100 µM | – | –
32 | CCC(C)CNC1=C(NC(C)=O)C(=O)c2ccccc2C1=O (stereo not given) | > 100 µM | > 100 µM | > 100 µM | > 100 µM | > 100 µM | – | – | > 100 µM | – | –
33 | O=C(/C=C(\O)C(=O)O)/C=C(\O)c1ccc(Cl)cc1 | > 100 µM | > 100 µM | > 100 µM | > 100 µM | > 100 µM | – | > 100 µM | > 100 µM | – | –
34 | COC1=CC(=O)c2c(O)c3c(c(O)c2C1=O)CC(C)(O)OC3 (stereo not given) | – | – | – | – | – | – | – | – | 3.57 µM | –
35 | O=C1CCc2cc([N+](=O)[O-])ccc2O1 | – | – | – | – | – | – | – | – | > 100 µM | –
36 | COC(=O)c1ccc2n[se]nc2c1 | > 100 µM | > 100 µM | > 100 µM | > 100 µM | > 100 µM | > 100 µM | > 100 µM | > 100 µM | – | –
37 | O=C(CC1Sc2ccccc2NC1=O)Nc1ccc([N+](=O)[O-])cc1[N+](=O)[O-] (stereo not given) | 51.7 µM | – | – | 79.5 µM | 28.6 µM | 41.4 µM | 27.5 µM | 28.7 µM | – | –
38 | Cc1cccc2c1NC(c1c(C)[nH]c3ccccc13)C2 (stereo not given) | – | – | > 100 µM | > 100 µM | > 100 µM | > 100 µM | > 100 µM | > 100 µM | – | –
39 | O=C(O)CSc1ccn(Cc2ccccc2)c1 | – | – | – | – | – | – | – | – | > 100 µM | –
40 | CC(CC(C)[C@H]1CCC2[C@H]3C(CC[C@@]21C)[C@@]1(C)CCC(O)C[C@H]1C[C@@H]3O)C(=O)O (stereo not given in full) | – | – | – | – | – | – | – | – | > 100 µM | –
41 | COC(=O)C1=C(SC)SC2(C(=O)OC)C3C=C(C)C4C(N13)C42C(=O)OC (stereo not given) | – | > 100 µM | – | > 100 µM | > 100 µM | – | > 100 µM | > 100 µM | – | –
42 | CC1=NN(C(=O)CC(=O)Nc2ccccc2)C(=O)C1N=Nc1ccc(S(N)(=O)=O)cc1 (stereo not given) | > 100 µM | > 100 µM | > 100 µM | > 100 µM | > 100 µM | > 100 µM | > 100 µM | > 100 µM | – | –
43 | O=C(O)/C=C/C(=O)Nc1cccc2c1-c1ccccc1C2=O | – | – | – | – | – | – | – | – | 12.1 µM | –
